Measured values as given in PubChem BioAssay AID1963841 (Molecular Pharmacology Branch, DTP, NCI, 2024).
Several values for one entry are separate records, joined by “and”; a condition that tells them apart may be missing. Identical values can stand only once.

Tested on: 439559-082-T-J2-PDC spheroid viability
Test: Anticancer human tumor 439559-082-T-J2-PDC patient-derived colon adenocarcinoma cell line growth inhibition [POLQ]
Details: spheroids with HUVEC and MSC; for viability, T/C: stronger effect = lower value
Procedure: Multicellular complex tumor spheroid response to Polymerase (POL) inhibitors (novobiocin, ART-558, RP6685) in combination with a variety of drugs and investigational agents in selected tumor cell lines
The POL inhibitors (novobiocin, ART-558, and RP6685) were evaluated both individually and in combination with standard of care and investigational anticancer small molecules within a complex spheroid model of solid tumors. . Complex spheroids include a stromal component modeled by human endothelial cells (HUVEC) and fibroblasts modeled by human mesenchymal stem cells (MSCs). The concentration ranges selected for each drug and investigational agent were based upon clinically achievable concentrations if the clinical Cmax of the agent was known.
Compounds. The drugs and investigational agents: novobiocin (NSC847541), ART-558 (NSC835418), RP-6685 (NSC848927), peposertib (NSC802822), ceralasertib (NSC780249), elimusertib (NSC800525), camonsertib (NSC841442), AZD-1390 (NSC803789), olaparib (NSC753686), talazoparib (NSC767125), rucaparib (NSC756644), sotorasib (NSC818433), MRTX-1133 (NSC836407), SN-38 (NSC673596), topotecan (NSC609699), epotoside (NSC141540), doxorubicin (NSC123127), gemcitabine (NSC613327), 5-fluorouracil (NSC19893), paclitaxel (NSC125973), vemurafenib (NSC761431), MSA-2 (NSC828583), SN-011 (NSC837082), adavosertib (NSC754352), prexasertib (NSC758257), carboplatin (NSC241240) and oxaliplatin (NSC266046), were obtained from the National Cancer Institute (NCI) Developmental Therapeutics Program Chemical Repository (21). The FDA-approved anticancer drug set is available from the Developmental Therapeutics Program at https://dtp.cancer.gov/organization/dscb/obtaining/. […] The stock solutions were prepared in dimethyl sulfoxide (DMSO, Sigma-Aldrich, St. Louis, MO, cat. D2650), except for the platinum compounds which were prepared in saline (Quality Biological, Gaithersburg, MD, cat. 114-055-101), at 800-fold the tested concentration and stored at -70 degrees C prior to their use. All drugs and investigational agents were tested over a range starting from a high concentration at or near the clinical Cmax and decreasing in half-log increments. If the clinical Cmax for an agent had not been determined, the highest concentration tested was 10 microM, except for SN-38, which was tested at a high concentration of 1 microM.
Cell Culture. All cells were maintained in an incubator at 37 degrees C and 5% CO2 with 95% humidity. The PDC lines were cultured according to standard operating procedures established by the NCI PDMR (https://pdmr.cancer.gov). Table 3 of the manuscript, lists the cell lines along with the number of the three cell types plated to form the mct-spheroids and media for tumor cell growth. After thawing, all PDC lines, except 997537-175-T-J1-PDC and 415267-285-R-J2-PDC, were cultured in Matrigel-coated flasks prepared with a working solution of 1X Ham's F-12 nutrient mix, without supplementation (Thermo Fisher Scientific, cat. 11765054), 100 U/mL penicillin-streptomycin (Thermo Fisher Scientific, cat. 15140122), and 2.5% Matrigel (Corning Inc., Corning, NY, cat. 354248) for the first three passages. The two PDC lines 997537-175-T-J1-PDC and 415267-285-R-J2-PDC were cultured on uncoated flasks. The 857933-349-R-J2-PDC line was cultured in 6C/Colon 1B media containing advanced DMEM/F-12 (Thermo Fisher Scientific, cat. 12634028), 10 mM HEPES (Thermo Fisher Scientific, cat. 15630080), 1X GlutaMAX supplement (Thermo Fisher Scientific, cat. 35050061), 0.1 mg/mL primocin (InvivoGen, San Diego, CA, cat. ant-pm-2), 10% defined fetal bovine serum, heat inactivated (HyClone Laboratories Inc., Logan, UT, cat. SH30070.03HI), 50% L-WRN conditioned media (ATCC, cat. CRL-3276), 1.25 mM N-Acetyl-L-cysteine (Sigma-Aldrich, cat. A9165), 10 mM nicotinamide (Sigma-Aldrich, cat. N0636), 1X B-27 supplement (Thermo Fisher Scientific, cat. 17504044), 1X N-2 supplement (Thermo Fisher Scientific, cat. […]
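Further: spheroids exposed to compounds for seven days before readout.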
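Wherever viability, T/C is given: 100% = DMSO vehicle control viability.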

**Q.** For `CC1COCCN1c1cc(C2(O)CC3CCC(C2)O3)c2cnn(-c3ccn[nH]3)c2n1` (stereo not given) + Nc1ccc(C#CCN(C(=O)Cc2ncc(C(F)(F)F)cc2C(F)(F)F)c2ccc(F)cc2)nn1, which IC50 (curve of first compound, second compound 0.0316 µM) is on record?
**A.** > 10 µM

**Q.** And the IC50 (curve of first compound, second compound 0.1 µM)?
**A.** > 10 µM

**Q.** What about the IC50 (curve of first compound, second compound 0.316 µM) of the same compound?
**A.** > 10 µM

**Q.** What about the IC50 (curve of first compound, second compound 1 µM) of the same compound?
**A.** > 10 µM

**Q.** What about the IC50 (curve of first compound, second compound 3.16 µM) of the same compound?
**A.** > 10 µM

**Q.** What about the IC50 (curve of first compound, second compound 10 µM) of the same compound?
**A.** > 10 µM

**Q.** And the viability, T/C (second compound 0.0316 µM, first compound 0.0316 µM)?
**A.** 97.8%

**Q.** What about the viability, T/C (second compound 0.0316 µM, first compound 0.1 µM) of the same compound?
**A.** 88.4%

**Q.** And the viability, T/C (second compound 0.0316 µM, first compound 0.316 µM)?
**A.** 77%

**Q.** What about the viability, T/C (second compound 0.0316 µM, first compound 1 µM) of the same compound?
**A.** 62.4%

**Q.** And the viability, T/C (second compound 0.0316 µM, first compound 3.16 µM)?
**A.** 59.4%

**Q.** And the viability, T/C (second compound 0.0316 µM, first compound 10 µM)?
**A.** 51.4%

**Q.** And the viability, T/C (second compound 0.1 µM, first compound 0.0316 µM)?
**A.** 102%

**Q.** What about the viability, T/C (second compound 0.1 µM, first compound 0.1 µM) of the same compound?
**A.** 85.8%

**Q.** And the viability, T/C (second compound 0.1 µM, first compound 0.316 µM)?
**A.** 79.4%

**Q.** And the viability, T/C (second compound 0.1 µM, first compound 1 µM)?
**A.** 60.3%

**Q.** And the viability, T/C (second compound 0.1 µM, first compound 3.16 µM)?
**A.** 56.9%

**Q.** What about the viability, T/C (second compound 0.1 µM, first compound 10 µM) of the same compound?
**A.** 54.4%

**Q.** What about the viability, T/C (second compound 0.316 µM, first compound 0.0316 µM) of the same compound?
**A.** 126%

**Q.** And the viability, T/C (second compound 0.316 µM, first compound 0.1 µM)?
**A.** 73.7%

**Q.** What about the viability, T/C (second compound 0.316 µM, first compound 0.316 µM) of the same compound?
**A.** 66.8%

**Q.** What about the viability, T/C (second compound 0.316 µM, first compound 1 µM) of the same compound?
**A.** 60.1%

**Q.** What about the viability, T/C (second compound 0.316 µM, first compound 3.16 µM) of the same compound?
**A.** 59.2%

**Q.** And the viability, T/C (second compound 0.316 µM, first compound 10 µM)?
**A.** 50.2%

**Q.** And the viability, T/C (second compound 1 µM, first compound 0.0316 µM)?
**A.** 97.1%

**Q.** And the viability, T/C (second compound 1 µM, first compound 0.1 µM)?
**A.** 100%

**Q.** And the viability, T/C (second compound 1 µM, first compound 0.316 µM)?
**A.** 78.2%

**Q.** What about the viability, T/C (second compound 1 µM, first compound 1 µM) of the same compound?
**A.** 66.7%

**Q.** What about the viability, T/C (second compound 1 µM, first compound 3.16 µM) of the same compound?
**A.** 60.6%

**Q.** And the viability, T/C (second compound 1 µM, first compound 10 µM)?
**A.** 55%

**Q.** What about the viability, T/C (second compound 3.16 µM, first compound 0.0316 µM) of the same compound?
**A.** 82.5%

**Q.** And the viability, T/C (second compound 3.16 µM, first compound 0.1 µM)?
**A.** 80.5%

**Q.** What about the viability, T/C (second compound 3.16 µM, first compound 0.316 µM) of the same compound?
**A.** 82.3%

**Q.** And the viability, T/C (second compound 3.16 µM, first compound 1 µM)?
**A.** 60.6%

**Q.** And the viability, T/C (second compound 3.16 µM, first compound 3.16 µM)?
**A.** 59.1%

**Q.** What about the viability, T/C (second compound 3.16 µM, first compound 10 µM) of the same compound?
**A.** 58%

**Q.** And the viability, T/C (second compound 10 µM, first compound 0.0316 µM)?
**A.** 91.7%

**Q.** And the viability, T/C (second compound 10 µM, first compound 0.1 µM)?
**A.** 80.7%

**Q.** And the viability, T/C (second compound 10 µM, first compound 0.316 µM)?
**A.** 66.9%

**Q.** And the viability, T/C (second compound 10 µM, first compound 1 µM)?
**A.** 53.1%

**Q.** What about the viability, T/C (second compound 10 µM, first compound 3.16 µM) of the same compound?
**A.** 55.3%

**Q.** What about the viability, T/C (second compound 10 µM, first compound 10 µM) of the same compound?
**A.** 48.6%

**Q.** How did the viability, T/C (compound 0.0316 µM) turn out when `COc1cc2cc(C(=O)CCC(=O)O)sc2cc1OC` was run?
**A.** 109% and 97.5% and 94.4%

**Q.** And the viability, T/C (compound 0.1 µM)?
**A.** 93.8% and 82% and 103%

**Q.** What about the viability, T/C (compound 0.316 µM) of the same compound?
**A.** 89.1% and 98.4% and 98.9%

**Q.** What about the viability, T/C (compound 1 µM) of the same compound?
**A.** 95.2% and 100% and 99.7%

**Q.** What about the viability, T/C (compound 3.16 µM) of the same compound?
**A.** 95.2% and 91.9% and 97%

**Q.** And the viability, T/C (compound 10 µM)?
**A.** 87.7% and 100% (2×)

**Q.** And the IC50 (curve of compound)?
**A.** > 10 µM

**Q.** For `O=C(c1cc(Cc2n[nH]c(=O)c3ccccc23)ccc1F)N1CCN(C(=O)C2CC2)CC1`, which viability, T/C (compound 0.0316 µM) is on record?
**A.** 88.1% and 67.6% and 87.6%

**Q.** What about the IC50 (curve of compound) of the same compound?
**A.** > 10 µM

**Q.** How did the viability, T/C (compound 0.0316 µM) turn out when `CC1COCCN1c1cc(C2(S(C)(=N)=O)CC2)nc(-c2ccnc3[nH]ccc23)n1` (stereo not given) was run?
**A.** 100% and 99.8% and 96.6%

**Q.** What about the viability, T/C (compound 0.1 µM) of the same compound?
**A.** 98.7% and 94.7% and 99.4%

**Q.** And the viability, T/C (compound 0.316 µM)?
**A.** 95.2% and 91.3% and 98.8%

**Q.** And the viability, T/C (compound 1 µM)?
**A.** 96% and 88% and 91.1%

**Q.** What about the viability, T/C (compound 3.16 µM) of the same compound?
**A.** 94.9% and 97.8% and 85.5%

**Q.** What about the viability, T/C (compound 10 µM) of the same compound?
**A.** 67.7% and 75.1% and 68.6%

**Q.** And the IC50 (curve of compound)?
**A.** > 10 µM

**Q.** What does the source list for `CC(C)n1c(=O)n(C)c2cnc3cc(F)c(-c4ccc(OCCCN5CCCCC5)nc4)cc3c21`?
**A.** viability, T/C (compound 3.16 µM): 116% and 127% and 102%; IC50 (curve of compound): > 10 µM
